Laboratory results as given in paper PMC11195807, “Development of a multi-targeted chemotherapeutic approach based on G-quadruplex stabilisation and carbonic anhydrase inhibition” (Journal of Enzyme Inhibition and Medicinal Chemistry, 2024).
One block for each molecule: values may come before it.

How the values were obtained:
[1] = system: Hairpin; assay: CD melting experiments, hairpin DNA duplex; settings: 2 molar equiv compound, T1/2 of DNA alone 66.0 °C
[2] = system: c-Myc; assay: CD melting experiments, c-Myc GQ; assay type: binding; settings: for ΔT1/2 c-Myc: 1 molar equiv compound, T1/2 of DNA alone 70.0 °C; for ΔΔT1/2 c-Myc: ΔT1/2 of compound minus ΔT1/2 of berberine, 1 molar equiv
Excerpt: (§1) The 21 synthesised MTDLs were screened for their ability to bind to and stabilise DNA GQ-forming sequences, compared to berberine, by CD experiments. Indeed, circular dichroism has shown to be outstandingly useful and informative for noncanonical nucleic acid secondary structures. For this purpose, a G-rich 23-nucleotide truncation (23-nt) of the human telomeric sequence (Tel23) and two G-rich motifs from the promoter regions of c-KIT (c-Kit1) and c-MYC (c-Myc) oncogenes were employed. First, the overall topology adopted by each DNA sequence in K^+-containing buffer was verified by CD spectra. […] GQ conformation (Figure S1, Supporting Information). On the other hand, c-Kit1 and c-Myc sequences adopted a parallel GQ conformation, showing a distinctive positive band at around 260 nm and a negative one at ∼240 nm in their CD spectra (Figures S2 and S3, Supporting Information).
(§2) Afterwards, the GQ-stabilising properties of the molecules were assessed by CD melting experiments, measuring the differences in the apparent melting temperatures of the DNA in the presence and absence of compounds (ΔT1/2) (Figures S4–S6 and Table S2, Supporting Information). […] This could be explained by considering the higher accessibility of the external G-tetrads in the case of parallel GQs compared to the hybrid one[52], which would allow the additional CAI moiety of conjugated compounds to be better accommodated in the binding site. […] . […] .

[3] = molecular target: T1, hCA I (Homo sapiens, UniProt P00915); assay: stopped-flow CO2 hydrase assay, hCA I; assay type: biochemical
T1 construct: made in house
Description: (§3) An Applied Photophysics stopped-flow instrument has been used for assaying the CA-catalysed CO2 hydration activity, as reported earlier. The enzyme concentrations were in the range 5–12 nM. All hCA isoforms were recombinant proteins, being obtained in-house as reported earlier.

[4] = system: Tel23; assay: CD melting experiments, Tel23 GQ; assay type: binding, human; settings: for ΔT1/2 Tel23: 2 molar equiv compound, T1/2 of DNA alone 53.5 °C; for ΔΔT1/2 Tel23: ΔT1/2 of compound minus ΔT1/2 of berberine, 2 molar equiv
Excerpt: as §1, §2

[5] = molecular target: T2, hCA XII (Homo sapiens, UniProt O43570); assay: stopped-flow CO2 hydrase assay, hCA XII; assay type: biochemical; settings: for Selectivity index (SI) I/XII: hCA XII over hCA I; for Selectivity index (SI) II/XII: hCA XII over hCA II; for Ki: mean ± SEM of three assays
T2 construct: made in house
Excerpt: (§4) An Applied Photophysics stopped-flow instrument has been used for assaying the CA-catalysed CO2 hydration activity, as reported earlier. […] All hCA isoforms were recombinant proteins, being obtained in-house as reported earlier.

[6] = system: c-Kit1; assay: CD melting experiments, c-Kit1 GQ; assay type: binding; settings: for ΔT1/2 c-Kit1: 2 molar equiv compound, T1/2 of DNA alone 55.0 °C; for ΔΔT1/2 c-Kit1: ΔT1/2 of compound minus ΔT1/2 of berberine, 2 molar equiv
Excerpt: as §1, §2

[7] = molecular target: T3, hCA IX (Homo sapiens, UniProt Q16790); assay: stopped-flow CO2 hydrase assay, hCA IX; assay type: biochemical; settings: for Selectivity index (SI) I/IX: hCA IX over hCA I; for Selectivity index (SI) II/IX: hCA IX over hCA II; for Ki: mean ± SEM of three assays
T3 construct: made in house
Excerpt: as §4

[8] = molecular target: T4, hCA II (Homo sapiens, UniProt P00918); assay: stopped-flow CO2 hydrase assay, hCA II; assay type: biochemical
T4 construct: made in house
Excerpt: . The structure-activity relationship is discussed separately for the two compound subsets. Another code pattern is included for the MTDLs in Table 1, which indicates the derivative CAI type (sulphonamide, S or coumarin, C) and the number of atoms in the spacers connecting either berberine and the triazole (carbon atoms) or the triazole and the benzenesulfonamide/coumarin scaffolds (carbon or oxygen atoms).
as §3

[9] = sulphonamides, inhibitor-enzyme incubation 15 min, mean ± SEM of three assays
[10] = sulphonamides, inhibitor-enzyme incubation 15 min
[11] = coumarins, inhibitor-enzyme incubation 6 h

T2 sequence (O43570 25-354): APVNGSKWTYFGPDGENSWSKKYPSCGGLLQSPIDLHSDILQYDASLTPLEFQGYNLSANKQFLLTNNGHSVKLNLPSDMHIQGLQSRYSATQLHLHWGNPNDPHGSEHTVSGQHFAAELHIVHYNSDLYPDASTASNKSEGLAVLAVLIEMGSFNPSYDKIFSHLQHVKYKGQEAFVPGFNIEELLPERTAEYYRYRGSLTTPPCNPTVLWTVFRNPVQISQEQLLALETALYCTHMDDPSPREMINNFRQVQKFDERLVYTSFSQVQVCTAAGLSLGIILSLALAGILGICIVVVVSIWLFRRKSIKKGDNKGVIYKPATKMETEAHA
T1 sequence (P00915 whole entry): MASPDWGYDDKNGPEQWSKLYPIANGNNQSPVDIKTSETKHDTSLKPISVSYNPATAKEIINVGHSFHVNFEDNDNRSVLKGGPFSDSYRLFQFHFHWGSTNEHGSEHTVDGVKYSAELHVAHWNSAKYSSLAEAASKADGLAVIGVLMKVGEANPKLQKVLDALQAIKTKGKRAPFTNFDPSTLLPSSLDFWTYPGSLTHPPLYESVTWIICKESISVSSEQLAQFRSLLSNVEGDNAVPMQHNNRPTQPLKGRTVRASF

Ki [3, 9]: 219 ± 16.2 nM
Selectivity index (SI) I/XII [5]: 75.7
Selectivity index (SI) II/XII [5]: 14.2
Ki [5, 10]: 2.9 ± 0.1 nM
Selectivity index (SI) I/IX [7]: 406.5
Selectivity index (SI) II/IX [7]: 76.1
Ki [7, 10]: 0.54 ± 0.03 nM
Ki [8, 9]: 41.1 ± 2.7 nM
Structure (SMILES): COc1ccc2cc3[n+](cc2c1OCCCCCn1cc(COc2ccc(S(N)(=O)=O)cc2)nn1)CCc1cc2c(cc1-3)OCO2 [Compound 33, 10-Methoxy-9-((5–(4-((4-sulfamoylphenoxy)methyl)-1H-1,2,3-triazol-1-yl)pentyl)oxy)-5,6-dihydro-[1,3]dioxolo[4,5-g]isoquinolino[3,2-a]isoquinolin-7-ium hexafluorophosphate]
ΔT1/2 Hairpin [1]: +0.2 °C
ΔT1/2 c-Myc [2]: 12.5 °C
ΔΔT1/2 c-Myc [2]: 0.5 °C
ΔT1/2 Tel23 [4]: 10.5 °C
ΔΔT1/2 Tel23 [4]: 1.0 °C
ΔT1/2 c-Kit1 [6]: 18.5 °C
ΔΔT1/2 c-Kit1 [6]: 5.5 °C

Ki [3, 11]: > 100000 nM
Ki [5, 11]: 18.9 ± 0.9 nM
Selectivity index (SI) I/XII [5]: > 529.1
Selectivity index (SI) II/XII [5]: > 529.1
Ki [7, 11]: 34.5 ± 2.4 nM
Selectivity index (SI) I/IX [7]: > 289.9
Selectivity index (SI) II/IX [7]: > 289.9
Ki [8, 11]: > 100000 nM
Structure (SMILES): COc1ccc2cc3[n+](cc2c1OCCCn1cc(CCOc2ccc4ccc(=O)oc4c2)nn1)CCc1cc2c(cc1-3)OCO2 [Compound 35, 10-Methoxy-9–(3-(4–(2-((2-oxo-2H-chromen-7-yl)oxy)ethyl)-1H-1,2,3-triazol-1-yl)propoxy)-5,6-dihydro-[1,3]dioxolo[4,5-g]isoquinolino[3,2-a]isoquinolin-7-ium hexafluorophosphate]
ΔT1/2 Hairpin [1]: +2.0 °C
ΔT1/2 c-Myc [2]: 18.5 °C
ΔΔT1/2 c-Myc [2]: 6.5 °C
ΔT1/2 Tel23 [4]: 8.0 °C
ΔΔT1/2 Tel23 [4]: −1.5 °C
ΔT1/2 c-Kit1 [6]: 18.5 °C
ΔΔT1/2 c-Kit1 [6]: 5.5 °C

Ki [3, 11]: > 100000 nM
Ki [5, 11]: 28.4 ± 1.7 nM
Selectivity index (SI) I/XII [5]: > 352.1
Selectivity index (SI) II/XII [5]: > 352.1
Ki [7, 11]: 58.9 ± 3.9 nM
Selectivity index (SI) I/IX [7]: > 169.8
Selectivity index (SI) II/IX [7]: > 169.8
Ki [8, 11]: > 100000 nM
Structure (SMILES): COc1ccc2cc3[n+](cc2c1OCCCn1cc(CCCOc2ccc4ccc(=O)oc4c2)nn1)CCc1cc2c(cc1-3)OCO2 [Compound 36, 10-Methoxy-9–(3-(4–(3-((2-oxo-2H-chromen-7-yl)oxy)propyl)-1H-1,2,3-triazol-1-yl)propoxy)-5,6-dihydro-[1,3]dioxolo[4,5-g]isoquinolino[3,2-a]isoquinolin-7-ium hexafluorophosphate]
ΔT1/2 Hairpin [1]: +0.5 °C
ΔT1/2 c-Myc [2]: 15.0 °C
ΔΔT1/2 c-Myc [2]: 3.0 °C
ΔT1/2 Tel23 [4]: 12.5 °C
ΔΔT1/2 Tel23 [4]: 3.0 °C
ΔT1/2 c-Kit1 [6]: 17.0 °C
ΔΔT1/2 c-Kit1 [6]: 4.0 °C

Continued, molecule first:

Structure (SMILES): COc1ccc2cc3[n+](cc2c1OCCn1cc(COc2ccc(S(N)(=O)=O)cc2)nn1)CCc1cc2c(cc1-3)OCO2 [Compound 27, 10-Methoxy-9–(2-(4-((4-sulfamoylphenoxy)methyl)-1H-1,2,3-triazol-1-yl)ethoxy)-5,6-dihydro-[1,3]dioxolo[4,5-g]isoquinolino[3,2-a]isoquinolin-7-ium hexafluorophosphate]
ΔT1/2 Hairpin [1]: -0.5 °C
ΔT1/2 c-Myc [2]: 18.5 °C
ΔΔT1/2 c-Myc [2]: 6.5 °C
Ki [3, 9]: 940 ± 52.1 nM
ΔT1/2 Tel23 [4]: 7.5 °C
ΔΔT1/2 Tel23 [4]: −2.0 °C
Selectivity index (SI) I/XII [5]: 213.7
Selectivity index (SI) II/XII [5]: 1.4
Ki [5, 10]: 4.4 nM
ΔT1/2 c-Kit1 [6]: 18.5 °C
ΔΔT1/2 c-Kit1 [6]: 5.5 °C
Selectivity index (SI) I/IX [7]: 1446
Selectivity index (SI) II/IX [7]: 9.2
Ki [7, 10]: 0.65 ± 0.05 nM
Ki [8, 9]: 6 nM

Structure (SMILES): COc1ccc2cc3[n+](cc2c1OCCCn1cc(-c2ccc(S(N)(=O)=O)cc2)nn1)CCc1cc2c(cc1-3)OCO2 [Compound 28, 10-Methoxy-9–(3-(4–(4-sulfamoylphenyl)-1H-1,2,3-triazol-1-yl)propoxy)-5,6-dihydro-[1,3]dioxolo[4,5-g]isoquinolino[3,2-a]isoquinolin-7-ium hexafluorophosphate]
ΔT1/2 Hairpin [1]: -2.0 °C
ΔΔT1/2 c-Myc [2]: >13.0 °C
ΔΔT1/2 c-Myc ([2]; listed as S-3,0): > 13.0 °C
Ki [3, 9]: 872 ± 55.9 nM
ΔT1/2 Tel23 [4]: 6.0 °C
ΔΔT1/2 Tel23 [4]: −3.5 °C
Selectivity index (SI) I/XII [5]: 62.3
Selectivity index (SI) II/XII [5]: 4.8
Ki [5, 10]: 14 ± 1 nM
ΔT1/2 c-Kit1 [6]: 16.5 °C
ΔΔT1/2 c-Kit1 [6]: 3.5 °C
Selectivity index (SI) I/IX [7]: 1194
Selectivity index (SI) II/IX [7]: 91.5
Ki [7, 10]: 0.73 ± 0.04 nM
Ki [8, 9]: 66.8 ± 3.9 nM

Structure (SMILES): COc1ccc2cc3[n+](cc2c1OCCCCn1cc(COc2ccc(S(N)(=O)=O)cc2)nn1)CCc1cc2c(cc1-3)OCO2 [Compound 31, 10-Methoxy-9–(4-(4-((4-sulfamoylphenoxy)methyl)-1H-1,2,3-triazol-1-yl)butoxy)-5,6-dihydro-[1,3]dioxolo[4,5-g]isoquinolino[3,2-a]isoquinolin-7-ium hexafluorophosphate]
ΔT1/2 Hairpin [1]: +0.2 °C
ΔT1/2 c-Myc [2]: 13.0 °C
ΔΔT1/2 c-Myc [2]: 1.0 °C
Ki [3, 9]: 916 ± 57.9 nM
ΔT1/2 Tel23 [4]: 8.0 °C
ΔΔT1/2 Tel23 [4]: −1.5 °C
Selectivity index (SI) I/XII [5]: 127.2
Selectivity index (SI) II/XII [5]: 9.9
Ki [5, 10]: 7.2 ± 0.5 nM
ΔT1/2 c-Kit1 [6]: 15.5 °C
ΔΔT1/2 c-Kit1 [6]: 2.5 °C
Selectivity index (SI) I/IX [7]: 1308
Selectivity index (SI) II/IX [7]: 102.1
Ki [7, 10]: 0.71 ± 0.04 nM
Ki [8, 9]: 71.5 ± 5.3 nM

Structure (SMILES): COc1ccc2cc3[n+](cc2c1OCCCCn1cc(CCOc2ccc4ccc(=O)oc4c2)nn1)CCc1cc2c(cc1-3)OCO2 [Compound 38, 10-Methoxy-9–(4-(4–(2-((2-oxo-2H-chromen-7-yl)oxy)ethyl)-1H-1,2,3-triazol-1-yl)butoxy)-5,6-dihydro-[1,3]dioxolo[4,5-g]isoquinolino[3,2-a]isoquinolin-7-ium hexafluorophosphate]
ΔT1/2 Hairpin [1]: -2.0 °C
ΔT1/2 c-Myc [2]: 15.0 °C
ΔΔT1/2 c-Myc [2]: 3.0 °C
Ki [3, 11]: > 100000 nM
ΔT1/2 Tel23 [4]: 7.5 °C
ΔΔT1/2 Tel23 [4]: −2.0 °C
Ki [5, 11]: 16.7 ± 1.2 nM
Selectivity index (SI) I/XII [5]: > 598.8
Selectivity index (SI) II/XII [5]: > 598.8
ΔT1/2 c-Kit1 [6]: 17.5 °C
ΔΔT1/2 c-Kit1 [6]: 4.5 °C
Ki [7, 11]: 30.1 ± 1.8 nM
Selectivity index (SI) I/IX [7]: > 332.2
Selectivity index (SI) II/IX [7]: > 332.2
Ki [8, 11]: > 100000 nM

Structure (SMILES): COc1ccc2cc3[n+](cc2c1OCc1cn(-c2cccc(S(N)(=O)=O)c2)nn1)CCc1cc2c(cc1-3)OCO2 [Compound 40, 10-Methoxy-9-((1–(3-sulfamoylphenyl)-1H-1,2,3-triazol-4-yl)methoxy)-5,6-dihydro-[1,3]dioxolo[4,5-g]isoquinolino[3,2-a]isoquinolin-7-ium hexafluorophosphate]
ΔT1/2 Hairpin [1]: +0.2 °C
ΔΔT1/2 c-Myc [2]: >13.0 °C
ΔΔT1/2 c-Myc ([2]; listed as S-1,0m): > 13.0 °C
Ki [3, 9]: 3670 ± 22 nM
ΔT1/2 Tel23 [4]: 5.5 °C
ΔΔT1/2 Tel23 [4]: −4.0 °C
Selectivity index (SI) I/XII [5]: 148.0
Selectivity index (SI) II/XII [5]: 3.6
Ki [5, 10]: 24.8 ± 1.3 nM
ΔT1/2 c-Kit1 [6]: 16.0 °C
ΔΔT1/2 c-Kit1 [6]: 3.0 °C
Selectivity index (SI) I/IX [7]: 941.1
Selectivity index (SI) II/IX [7]: 23.1
Ki [7, 10]: 3.9 ± 0.2 nM
Ki [8, 9]: 90.1 ± 5.6 nM
